Ki data for 13 compounds are collected here from ChEMBL document CHEMBL5576121, “Halogen Bonding Hot Spots as a Constraint in Virtual Screening: A Case Study of 5-HT7R” (J Med Chem, 2024).

SMILES strings stand for the structures.

By Ki is commonly meant a measure of affinity in units of concentration, obtained from inhibition or displacement. Read a low Ki as a stronger hold on the target.

The test deals with 5-hydroxytryptamine receptor 7 (Homo sapiens, UniProt P34969). Put plainly: Displacement of [3H]-5-CT from human 5-HT7b receptor expressed in HEK293 cell membranes incubated for 1 hr by Microbeta Topcount instrument based analysis.
Chain of 5-hydroxytryptamine receptor 7 (P34969 whole entry): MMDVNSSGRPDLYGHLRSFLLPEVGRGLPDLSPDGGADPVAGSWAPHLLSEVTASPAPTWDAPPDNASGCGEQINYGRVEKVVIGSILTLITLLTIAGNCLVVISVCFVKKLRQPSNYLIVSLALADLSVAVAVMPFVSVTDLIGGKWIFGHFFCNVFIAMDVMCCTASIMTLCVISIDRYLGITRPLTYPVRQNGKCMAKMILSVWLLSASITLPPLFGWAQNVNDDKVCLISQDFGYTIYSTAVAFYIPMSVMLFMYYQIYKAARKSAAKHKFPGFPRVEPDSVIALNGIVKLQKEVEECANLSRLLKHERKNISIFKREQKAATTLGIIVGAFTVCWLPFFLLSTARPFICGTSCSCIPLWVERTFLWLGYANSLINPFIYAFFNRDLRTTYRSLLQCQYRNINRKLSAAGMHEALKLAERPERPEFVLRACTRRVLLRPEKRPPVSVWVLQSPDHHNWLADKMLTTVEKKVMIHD
As to `CCCc1ccc(OCC(O)CN2CCN(c3cccc(Cl)c3)CC2)cc1` (stereo not drawn), the inhibition constant Ki came out at 360 nM. This counts as sub-micromolar. Regarding `OC(COc1ccc2c(c1)CCC2)CN1CCN(c2ccccc2)CC1` (stereo not drawn), the inhibitory constant (Ki) amounted to 587 nM. Compared with the last compound, the Ki is about 1.6-fold higher.

The compound `CC(=O)c1ccc(OCC(O)CN2CCN(c3cccc(Cl)c3)CC2)cc1` (stereo not drawn) displayed a Ki of 471 nM. The same measure for `COc1ccc(OC)c(COCC(O)CN2CCN(c3cccc(Cl)c3)CC2)c1` (stereo not drawn): 65 nM; for `CCC(=O)N1c2ccccc2CC1C(=O)NCCCN1CCN(c2ccccc2)CC1` (stereo not drawn): 7130 nM.

Compound `CC(=O)c1ccc(OCC(O)CN2CCN(c3ccc(Cl)cc3)CC2)cc1` (stereo not drawn) had a Ki of 7130 nM. In turn, `CCC(=O)N1c2ccccc2CC1C(=O)NCCCN1CCN(c2cccc(Cl)c2)CC1` (stereo not drawn) gave an inhibition constant Ki of 687 nM. With `COc1ccc(OC)c(COCC(O)CN2CCN(c3ccccc3)CC2)c1` (stereo not drawn), the affinity corresponds to a Ki of 2300 nM.

The compound `CCCc1ccc(OCC(O)CN2CCN(c3ccccc3)CC2)cc1` (stereo not drawn) returned a Ki of 1090 nM. This Ki is about 2.1-fold lower than that of the compound before. Take `CC(=O)c1ccc(OCC(O)CN2CCN(c3ccccc3)CC2)cc1` (stereo not drawn): affinity was put at a Ki of 1970 nM.

With `OC(COc1ccc2c(c1)CCC2)CN1CCN(c2ccc(Cl)cc2)CC1` (stereo not drawn), the Ki was 1520 nM. This Ki and that of the compound before are within 1.5-fold of each other. The same measure for `CC(=O)c1ccc(OCC(O)CN2CCN(c3ccccc3Cl)CC2)cc1` (stereo not drawn): 4670 nM; for `OC(COc1ccc2c(c1)CCC2)CN1CCN(c2cccc(Cl)c2)CC1` (stereo not drawn): 285 nM.
